Results published in publication PMC9698483, “Berbamine Reduces Chloroquine-Induced Itch in Mice through Inhibition of MrgprX1” (International Journal of Molecular Sciences, 2022).
Several values for one entry are separate records, joined by “and”; a condition that tells them apart may be missing. Equal entries are not always repeated.

Columns and labels:
[1] = tested on: CQ-sensitive strain of P. falciparum; set-up: method as in doi:10.1002/ddr.430300405; settings: in vitro; read-out: IC50 antimalaria effect, CQ-sensitive strain; cited from earlier work
MrgprX1 = target: T1, MrgprX1 (Homo sapiens, UniProt Q96LB2); assay: Intracellular calcium measurement (Fluo-4 NW) in HEK293T cells expressing MrgprX1; format: cell-based
T1 construct: expressed in transfected cells
T1 sequence (Q96LB2 whole entry): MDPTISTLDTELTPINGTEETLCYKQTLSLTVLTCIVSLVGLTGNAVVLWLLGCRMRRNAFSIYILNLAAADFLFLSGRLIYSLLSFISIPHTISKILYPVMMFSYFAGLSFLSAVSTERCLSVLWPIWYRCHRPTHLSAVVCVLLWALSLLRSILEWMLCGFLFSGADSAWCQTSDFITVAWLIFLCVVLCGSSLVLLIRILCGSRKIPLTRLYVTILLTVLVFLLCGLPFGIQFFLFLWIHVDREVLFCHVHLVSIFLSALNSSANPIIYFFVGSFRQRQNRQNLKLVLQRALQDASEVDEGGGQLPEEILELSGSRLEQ
Experimental: To identify novel antagonists of MrgprX1, a cell-based screening assay was established. […] Cells were treated with the indicated concentrations of CQ where the arrow indicates. (B) Summary of dose-response (mean ± S.E., n = 6). (C) Representative Fluo−4 fluorescence traces of MrgprX1 antagonist screening. Cells were treated with 30 μM of the test compounds for 10 min prior to treatment with 300 μM CQ.
Figure 2 Effect of berbamine and closantel on CQ- and ionomycin-induced increases in intracellular calcium levels: (A,B) Intracellular calcium levels were measured using Fluo−4 NW in HEK293T cells expressing MrgprX1. The cells were pretreated with the indicated concentrations of berbamine (BBM) and closantel (CLS) for 10 min prior to treatment with 300 μM CQ. (C) Summary of dose-response (mean ± S.E., n = 6). […] The cells were pretreated with the indicated concentrations of BBM and CLS for 10 min before treatment with ionomycin. (F) Summary of dose–response (mean ± S.E., n = 6).
Intracellular calcium levels were measured using a Fluo-4 NW calcium assay kit (Invitrogen, Carlsbad, CA) as per the manufacturer’s protocol in HEK293T and HT29 cells. Briefly, the cells were plated in a 96-well black-walled plate and incubated with 100 μL of assay buffer including Fluo-4 NW. […] Intracellular calcium increase was induced with the application of the indicated agonist. All modulators were dissolved in DMSO, and cells were treated with a final concentration of 1% DMSO.

histamine-induced itch = assay: Histamine-induced pruritus in mice (scratching bouts); format: in vivo, BALB/c mice; settings: 30 mg/kg i.p.
Experimental: (§1) To investigate the antipruritic effect of berbamine, we observed the effect of berbamine on pruritogen-induced scratching behavior in BALB/c mice. Mice were transferred to clear cages and treated with berbamine intraperitoneally after a 30 min acclimatization period. Mouse behavior was recorded for 30 min right after the subcutaneous injection of pruritogens to the nape 30 min after berbamine treatment (Figure 7A). […] We further investigated the effect of berbamine on pruritus caused by other pruritogens.
(§2) Figure 7 Effect of berbamine on acute pruritogen-induced pruritus in mice: (A) Scheme of acute pruritogen-induced pruritus mouse model. […] Statistical significance of differences between each group and CQ group was assessed using one-way ANOVA with Tukey’s post hoc test. * p < 0.05, ** p < 0.01, *** p < 0.001. […] Statistical significance of differences was determined using Student’s t-test. […]
(§3) […] six-week-old BALB/c male mice were purchased from DBL (Chungcheong-do, Republic of Korea), and an additional 1 week was given for accommodation. […] After 30 min, pruritogen compounds (i.e., CQ, histamine, PAR2-AP, and DCA) were subcutaneously administered into the nape, and scratching bouts were recorded for 30 min. […] The total number of scratching bouts was counted by recording the number of scratching bouts in the recorded video over 30 min of observation time.

CQ-induced pruritus = CQ-induced pruritus mouse model (scratching bouts); format: in vivo, BALB/c mice; settings: 30 mg/kg intraperitoneally, 30 min before s.c. CQ (400 µg/50 µL), 30 min recording
Experimental: as §1, §2, §3

TGR5 = target: T2, TGR5 (Homo sapiens, UniProt Q8TDU6); assay: TGR5 activity by YFP fluorescence quenching assay in CHO-K1 cells; format: cell-based; settings: 30 μM with 80 μM DCA for 10 min
T2 construct: expressed in transfected cells; host or cells: CHO-K1
T2 sequence (Q8TDU6 1-330): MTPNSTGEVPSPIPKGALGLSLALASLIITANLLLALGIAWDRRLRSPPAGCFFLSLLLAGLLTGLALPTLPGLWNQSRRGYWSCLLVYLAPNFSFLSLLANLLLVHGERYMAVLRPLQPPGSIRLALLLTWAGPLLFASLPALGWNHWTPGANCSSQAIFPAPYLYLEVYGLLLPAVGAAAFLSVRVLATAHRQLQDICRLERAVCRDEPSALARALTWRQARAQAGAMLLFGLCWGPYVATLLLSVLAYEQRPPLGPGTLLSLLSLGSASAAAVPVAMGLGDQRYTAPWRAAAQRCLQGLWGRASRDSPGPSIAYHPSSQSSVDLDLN
Experimental: Figure 3 Effects of berbamine on the activity of other pruritogenic GPCRs: (A,B) Effect of berbamine on histamine 1 receptor (H1R) and histamine 4 receptor (H4R). H1R- and H4R-expressing HEK293T cells were pretreated with 30 μM BBM for 10 min prior to 100 μM histamine treatment. […] (C) Effect of berbamine on PAR2. HT29 cells were pretreated with BBM for 10 min prior to 30 μM PAR2-AP treatment. […] (D) Effect of berbamine on MrgprC11. MrgprC11-expressing HEK293T cells were pretreated with BBM for 10 min prior to 100 μM […] treatment. (E) Effect of berbamine on MrgprX4. MrgprX4-expressing HEK293T cells were pretreated with BBM for 10 min prior to 80 μM DCA treatment. (F) Effect of berbamine on TGR5. TGR5 activity was measured using a YFP fluorescence quenching assay. CHO-K1 cells coexpressing TGR5 and a halide sensor YFP were pretreated with BBM and 80 μM DCA for 10 min prior to I^- treatment. Results were summarized as means ± S.E. (n = 6). NTC, nontransfected cells.
All modulators were dissolved in DMSO, and cells were treated with a final concentration of 1% DMSO.

DCA-induced itch = assay: DCA-induced pruritus in mice (scratching bouts); format: in vivo, BALB/c mice; settings: 30 mg/kg i.p., DCA 50 μg/50 μL
Experimental: as §1, §2, §3

[2] = tested on: ERK1/2 phosphorylation through MrgprX1; assay: Immunoblot of ERK1/2 phosphorylation in HEK293T cells expressing MrgprX1; format: cell-based, human; settings: HEK-MrgprX1 cells, 10 μM BBM for 10 min prior to CQ
[3] = tested on: CQ-resistant strain of P. falciparum; set-up: method as in doi:10.1002/ddr.430300405; settings: in vitro, compound alone; read-out: IC50 antimalaria effect, CQ-resistant strain; cited from earlier work

In the case of COc1cc2c3cc1Oc1c(OC)c(OC)cc4c1[C@@H](Cc1ccc(O)c(c1)Oc1ccc(cc1)C[C@@H]3N(C)CC2)N(C)CC4 [berbamine], the IC50 [1] is listed as 603 ± 47 nM, the “activation of MrgprX1 by the compound itself” value (MrgprX1; 30 μM berbamine (Figure S1)) is listed as “did not activate MrgprX1 by itself” and the “mode of inhibition of the activation of MrgprX1 by CQ” value (MrgprX1; 30 μM berbamine, CQ dose response (Figure S3)) is listed as “competitive inhibitory effect”. For the same compound, the “inhibition of MrgprX1 activation by BAM8-22” value (MrgprX1; 10 min pretreatment, 500 nM BAM8-22 (Figure S2)) was “did not potently inhibit”, the inhibition at 30 µM (MrgprX1; HEK-293T, 30 μM test compound for 10 min, then 300 μM CQ, read-out: inhibition of the CQ-induced activation of MrgprX1 (screening)) was over 90% and the IC50 (MrgprX1; pretreated 10 min prior to 300 μM CQ, read-out: IC50 of inhibition of CQ-induced MrgprX1 activation) was 1600 nM. The “effect on total scratching bouts induced by histamine” value (histamine-induced itch) was “no significant effect”, the “attenuation of CQ-induced pruritus (total scratching bouts)” value (CQ-induced pruritus) was 80% and ~ 80% and the “effect on DCA-induced activation of TGR5” value (TGR5) was “did not alter”. For the same compound, the “effect on total scratching bouts induced by DCA” value (DCA-induced itch) was “no significant effect”, the “effect on CQ-induced ERK1/2 phosphorylation” value [2] was “significantly reduced” and the IC50 [3] was 359 ± 9 nM.
